Measured values taken from BigSolDB 2.1.

c1ccc2c(c1)CCc1ccccc1N2
solubility (mole fraction)
Conditions	283.15 K	288.15 K	293.15 K	298.15 K	303.15 K	308.15 K	313.15 K	318.15 K	323.15 K	328.15 K
in DMSO	–	–	0.0199	0.0239	0.0285	0.0336	0.0391	0.045	0.0516	0.0592
in ethanol	0.000769	0.00102	0.00136	0.00175	0.00227	0.00284	0.0036	0.00453	0.00558	0.00691
in ethylene glycol	0.000351	0.000427	0.000494	0.000566	0.000642	0.000722	0.000812	0.000905	0.00101	0.00111
in isopropanol	0.000448	0.000585	0.000783	0.000992	0.00127	0.00161	0.00204	0.00253	0.00314	0.00388
in water	8.4e-07	1.27e-06	1.83e-06	2.73e-06	3.77e-06	5.41e-06	7.42e-06	1.02e-05	1.39e-05	1.87e-05
